Test results as given in US20100143937A1 (priority 2007, published 2010).

Target: T1, NAPE-PLD (Homo sapiens, UniProt Q6IQ20)
T1 construct: made in house; host or cells: baculovirus/insect cells, pDEST8.1 vector; purified by metal chelating chromatography
T1 sequence (Q6IQ20 with tags, fused parts or gaps): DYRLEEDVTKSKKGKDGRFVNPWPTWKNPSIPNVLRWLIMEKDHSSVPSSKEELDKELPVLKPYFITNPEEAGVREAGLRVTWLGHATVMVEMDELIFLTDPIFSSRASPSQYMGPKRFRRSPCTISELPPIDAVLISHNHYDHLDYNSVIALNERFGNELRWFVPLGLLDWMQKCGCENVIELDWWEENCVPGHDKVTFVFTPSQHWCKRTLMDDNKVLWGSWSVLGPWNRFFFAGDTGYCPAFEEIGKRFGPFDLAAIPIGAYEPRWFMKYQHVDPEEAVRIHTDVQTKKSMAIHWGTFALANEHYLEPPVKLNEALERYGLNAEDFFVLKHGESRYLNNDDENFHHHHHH
Test: NAPE-PLD PED6 fluorescence assay, Km determination
Type: biochemical
Conditions: substrate PED6 with NAPE-PLD; FIG. 8
Description: General assay conditions use the following final concentrations of the following material: NAPE-PLD at 14 nM, PED6 (substrate) at 10 μM, test compounds at 10 μM, DMSO at 1%. PED6 is purchased (see Table 1) as a lyophilized powder and stored at −20° C. A fresh substrate solution should be prepared daily. 1 mg of PED6 is dissolved in 0.88 ml of ethyl acetate and diluted into 43.12 ml assay buffer to make is a 20 μM working solution. PED6 must be kept out of direct light, as it is light sensitive.
Test compounds are diluted in an appropriate buffer. A non-limiting example is 50 mM Tris-HCl, pH 8.0, the buffer may contain DMSO, for instance, 10% DMSO. Assay buffer was 50 mM Tris-HCl, pH 8.0, 0.05% Triton X-100 and stop solution is 0.4 M HCl, 0.05% Triton X-100.
Order of addition of reagents and equipment used: • 1) Dilute enzyme (NAPE-PLD, 22 μM) to 28 nM in assay buffer. • 2) Prepare substrate (20 μM in assay buffer). • 3) Add 10 μl NAPE-PLD to assay plate using FLEXDROP. • 4) Add 2 μl compound (from compound plate) to appropriate wells of assay plate using Cy-Bio. • 5) Incubate plates, covered, at room temperature for 30 minutes (compound preincubation). • 6) Add 10 μl PED6 to assay plate using FLEXDROP. • 7) Incubate plates, covered, at room temperature for 30 minutes (enzyme reaction) • 8) Terminate the reaction by adding 20 μl of stop solution, using FLEXDROP • 9) Read on LJL Acquest. […]

SMILES: CCCCCCCCCCCCCCCC(=O)OC[C@H](COP(=O)(O)OCCNC(=O)CCCCCNc1ccc([N+](=O)[O-])cc1[N+](=O)[O-])OC(=O)CCCCC1=[N+]2C(=Cc3c(C)cc(C)n3[B-]2(F)F)C=C1 [PED6]
- Km: 3.9 µM
